# In US8946215B2, “Hydroxy-substituted imidazo[1,2-a]pyridinecarboxamides and their use” (Bayer Pharma Aktiengesellschaft, priority 2012, dated 2015):
# Experiments:
# [1] = biological target: T1, recombinant guanylate cyclase reporter cell line (Rattus norvegicus, UniProt P19686+P20595); assay: Action on recombinant guanylate cyclase reporter cell line; format: cell-based; settings: in some cases mean values obtained from individual determinations
# T1 construct: expressed in transfected cells
# T1 sequence (P20595 1-619): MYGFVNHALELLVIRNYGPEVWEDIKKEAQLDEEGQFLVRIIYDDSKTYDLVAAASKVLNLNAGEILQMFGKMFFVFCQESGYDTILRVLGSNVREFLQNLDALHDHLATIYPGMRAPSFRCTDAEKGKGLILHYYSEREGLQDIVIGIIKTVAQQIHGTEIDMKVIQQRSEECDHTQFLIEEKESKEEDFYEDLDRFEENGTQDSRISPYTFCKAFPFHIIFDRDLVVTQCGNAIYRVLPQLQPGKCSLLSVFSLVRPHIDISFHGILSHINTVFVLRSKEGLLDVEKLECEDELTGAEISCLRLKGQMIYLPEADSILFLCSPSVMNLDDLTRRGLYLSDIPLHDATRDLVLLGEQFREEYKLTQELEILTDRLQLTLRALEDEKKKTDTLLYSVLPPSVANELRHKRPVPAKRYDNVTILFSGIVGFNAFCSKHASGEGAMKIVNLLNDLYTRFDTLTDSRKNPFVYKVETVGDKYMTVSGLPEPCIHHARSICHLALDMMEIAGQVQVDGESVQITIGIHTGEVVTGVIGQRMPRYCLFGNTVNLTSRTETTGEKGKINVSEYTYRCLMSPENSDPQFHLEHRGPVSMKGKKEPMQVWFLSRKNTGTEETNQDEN
# T1 sequence (P19686 1-690): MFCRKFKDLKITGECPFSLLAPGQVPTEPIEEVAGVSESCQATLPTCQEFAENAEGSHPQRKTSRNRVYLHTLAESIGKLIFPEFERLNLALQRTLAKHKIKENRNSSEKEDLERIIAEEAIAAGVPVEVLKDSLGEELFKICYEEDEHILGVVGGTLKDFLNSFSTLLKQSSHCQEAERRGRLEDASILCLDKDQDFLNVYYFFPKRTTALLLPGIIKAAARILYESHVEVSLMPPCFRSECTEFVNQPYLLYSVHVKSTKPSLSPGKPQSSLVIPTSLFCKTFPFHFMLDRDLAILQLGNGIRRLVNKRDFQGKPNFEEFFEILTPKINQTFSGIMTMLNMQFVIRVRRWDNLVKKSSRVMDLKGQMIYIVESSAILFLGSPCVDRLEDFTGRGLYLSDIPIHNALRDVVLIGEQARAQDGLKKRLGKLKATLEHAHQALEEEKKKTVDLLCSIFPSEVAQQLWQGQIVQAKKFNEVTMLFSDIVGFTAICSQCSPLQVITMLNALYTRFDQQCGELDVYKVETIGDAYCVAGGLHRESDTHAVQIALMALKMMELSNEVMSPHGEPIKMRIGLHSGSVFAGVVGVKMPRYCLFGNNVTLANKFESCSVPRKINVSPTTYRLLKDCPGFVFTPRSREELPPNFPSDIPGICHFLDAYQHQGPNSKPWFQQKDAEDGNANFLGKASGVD
# Method in brief: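 Cell-based reporter assay with recombinant guanylate cyclase expressed in a reporter cell line, per a published method. Activity reported as minimal effective concentration (MEC), in some cases as the mean of individual determinations.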
# [2] = Determination of pharmacokinetic parameters following intravenous and oral administration (rats); format: in vivo, male Wistar rats; settings: following intravenous and peroral administration; for MRT / half-life: male, Wistar, rat, plasma; for MRT: read-out: MRT (Mean Residence Time); for half-life: read-out: t½ (terminal half life) (converted)
# Experimental: B-6. Determination of Pharmacokinetic Parameters Following Intravenous and Oral Administration
# The pharmacokinetic parameters of the compounds according to the invention are determined in male CD-1 mice, male Wistar rats and female beagles. Intravenous administration in the case of mice and rats is carried out by means of a species-specific plasma/DMSO formulation, and in the case of dogs by means of a water/PEG400/ethanol formulation. In all species, oral administration of the dissolved substance is performed via gavage, based on a water/PEG400/ethanol formulation.
# The taking of blood from rats is simplified by inserting a silicone catheter into the right Vena jugularis externa prior to substance administration. The operation is carried out at least one day prior to the experiment with […] and administration of an analgesic (atropin/Rimadyl (3/1) 0.1 ml s.c.). The blood is taken (generally more than 10 time points) within a time window including terminal time points of at least 24 to a maximum of 72 hours after substance administration. When the blood is taken, it is passed into heparinised tubes. Then the blood plasma is obtained by centrifugation and is optionally stored at −20° C. until further processing.
# An internal standard (which may also be a chemically unrelated substance) is added to the samples of the compounds according to the invention, calibration samples and qualifiers, and there follows protein precipitation by means of excess acetonitrile. Addition of a buffer solution matched to the LC conditions, and subsequent vortexing, is followed by centrifugation at 1000 g. The supernatant is analysed by LC-MS/MS using C18 reversed-phase columns and variable mobile phase mixtures.
# The substances are quantified via the peak heights or areas from extracted ion chromatograms of specific selected ion monitoring experiments.
# The plasma concentration/time plots determined are used to calculate the pharmacokinetic parameters such as AUC, Cmax, t1/2 (terminal half life), F (Bioavailability), MRT (Mean Residence Time) and CL (Clearance), using a validated pharmacokinetic calculation programme.
# Since the substance quantification is carried out in plasma, it is necessary to determine the blood/plasma distribution of the substance in order to be able to adjust the pharmacokinetic parameters correspondingly. For this purpose, a defined amount of substance is incubated in heparinised whole blood of the species in question in a rocking roller mixer for 20 min. After centrifugation at 1000 g, the plasma concentration is measured (by means of LC-MS/MS; see above) and determined by calculating the ratio of the Cblood/Cplasma value.
MEC (minimal effective concentration) [1] [µM],AUCnorm [2] [kg·h/L],CLblood [2] [mL/min/kg],MRT [2] [h],half-life [2] [h],SMILES
1,2.0,11.8,4,4.6,"Cc1cc(OCc2ncccc2F)c2nc(C)c(C(=O)NC(CCC(F)(F)C(F)(F)F)C(C)(C)O)n2c1 (single isomer, unassigned; ent-8) [Example 187, ent-8-[(3-fluoropyridin-2-yl)methoxy]-2,6-dimethyl-N-(6,6,7,7,7-pentafluor-2-hydroxy-2-methylheptan-3-yl)imidazo[1,2-a]pyridine-3-carboxamide (enantiomer B)]"
0.53,2.9,7.33,8.4,6.2,"Cc1nc2c(OCc3ncccc3F)cc(Cl)cn2c1C(=O)NC(CCC(F)(F)C(F)(F)F)C(C)(C)O (single isomer, unassigned; ent-6) [Example 194, ent-6-chloro-8-[(3-fluoropyridin-2-yl)methoxy]-2-methyl-N-(6,6,7,7,7-pentafluoro-2-hydroxy-2-methylheptan-3-yl)imidazo[1,2-a]pyridine-3-carboxamide (enantiomer A)]"
0.3,2.5,9.33,3.3,3.4,"Cc1cc(OCc2ncccc2F)c2nc(C)c(C(=O)NC(CCCC(F)(F)F)C(C)(C)O)n2c1 (single isomer, unassigned; ent-8) [Example 181, ent-8-[(3-fluoropyridin-2-yl)methoxy]-2,6-dimethyl-N-(7,7,7-trifluoro-2-hydroxy-2-methylheptan-3-yl)imidazo[1,2-a]pyridine-3-carboxamide (enantiomer B)]"
0.3,2.3,8.83,2.5,1.7,"Cc1nc2c(OCc3ncccc3F)cc(Cl)cn2c1C(=O)NC(CCCC(F)(F)F)C(C)(C)O (single isomer, unassigned; ent-6) [Example 188, ent-6-chloro-8-[(3-fluoropyridin-2-yl)methoxy]-2-methyl-N-(7,7,7-trifluoro-2-hydroxy-2-methylheptan-3-yl)imidazo[1,2-a]pyridine-3-carboxamide (enantiomer A)]"
